Experimental data from patent US10081632B2, “Substituted tetrahydropyrido[3′,2′:4,5]pyrrolo[1,2-α]pyrazine-2-carboxamides as RSK inhibitors” (Phoenix Molecular Designs, priority 2016, dated 2018).

Assays:
JIMT-1 cells [1] = assay: Monolayer growth inhibition, Alamar blue assay; format: cell-based; details: Homo sapiens; JIMT-1 (HER2), 5 days, single dose on day 1
Description: (§1) In all instances a single dose was given on day 1 of the experiment.

MDA-MB-231 cells [2] = assay: Monolayer growth inhibition, Alamar blue assay; format: cell-based; details: Homo sapiens; MDA-MB-231 (TNBC), 5 days, single dose on day 1
Description: as §1

PC3 cells [3] = assay: Monolayer growth inhibition, Alamar blue assay; format: cell-based; details: Homo sapiens, PC-3; PC3 (Prostate), 5 days, single dose on day 1
Description: as §1

HCC1937 cells [4] = assay: Monolayer growth inhibition, Alamar blue assay; format: cell-based; details: Homo sapiens; HCC1937 (TNBC, BRCA Mutant), 5 days, single dose on day 1
Description: as §1

MDA-MB-435 cells [5] = assay: Monolayer growth inhibition, Alamar blue assay; format: cell-based; details: Homo sapiens; MDA-MB-435 (Melanoma), 5 days, single dose on day 1
Description: as §1

4T1 cells [6] = assay: Monolayer growth inhibition, Alamar blue assay; format: cell-based; details: Mus musculus; 4T1 (TNBC), 5 days, single dose on day 1
Description: as §1

HCC1143 cells [7] = assay: Monolayer growth inhibition, Alamar blue assay; format: cell-based; details: Homo sapiens; HCC1143 (TNBC), 5 days, single dose on day 1
Description: as §1

SUM149 cells [8] = assay: Monolayer growth inhibition, Alamar blue assay; format: cell-based; details: Homo sapiens; SUM149 (TNBC, BRCA Mutant), 5 days, single dose on day 1
Description: as §1

MDA-MB-468 cells [9] = assay: Monolayer growth inhibition, Alamar blue assay; format: cell-based; details: Homo sapiens; MDA-MB-468 (TNBC), 5 days, single dose on day 1
Description: as §1

MDA-MB-468 cells [10] = assay: Soft agar growth inhibition assay; format: cell-based, Human; details: Homo sapiens; MDA-MB-468 (TNBC), 14-22 days
JIMT-1 cells [11] = assay: Monolayer growth inhibition, crystal violet assay; format: cell-based; details: Homo sapiens; JIMT-1 (HER2), 5 days, single dose on day 1
Description: (§2) In all instances a single dose was given on day 1 of the experiment. […] Complete (100%) growth suppression was achievable with several of the compounds in multiple different cell lines.

T47D cells [12] = assay: Monolayer growth inhibition, crystal violet assay; format: cell-based; details: Homo sapiens; T47D (ER/PR), 5 days, single dose on day 1
Description: as §2

HCC1937 cells [13] = assay: Monolayer growth inhibition, crystal violet assay; format: cell-based; details: Homo sapiens; HCC1937 (TNBC, BRCA Mutant), 5 days, single dose on day 1
Description: as §2

MDA-MB-468 cells [14] = assay: Monolayer growth inhibition, crystal violet assay; format: cell-based; details: Homo sapiens; MDA-MB-468 (TNBC), 5 days, single dose on day 1
Description: as §2

All cell lines [15] = assay: Monolayer growth inhibition, Alamar blue assay, range over all cell lines; format: cell-based; details: 120 h; range of IC50 over all cell lines of the table; read-out: IC50 Values - Alamar Blue (5 Days), Range, All
Description: as §1

All cell lines [16] = assay: Monolayer growth inhibition, crystal violet assay, range over all cell lines; format: cell-based; details: 120 h; range of IC50 over all cell lines of the table; read-out: IC50 Values - Crystal Violet (5 Days), Range, All
Description: as §2

[17] = Solubility assessment, 20 mg/ml solution; format: physicochemical; details: 100 mM in DMSO diluted in DMEM growth media to 20 mg/ml
Protocol: Solubility is an important property for therapeutic drug candidates. Poor solubility can lead to low bioavailability resulting in suboptimal drug delivery. It can also prevent the evaluation of test agents in animals because the concentration(s) needed to achieve the desired effect cannot be achieved to poor solubility. For solubility assessments, small molecules targeting RSK were compared. For these assessments, 100 mM solutions of the compounds dissolved in DMSO were diluted in DMEM growth media (Life Technologies) supplemented with fetal bovine serum (FBS, Life Technologies) and 100 units/ml penicillin and 100 units/ml streptomycin (Life Technologies) to make 20 mg/ml solutions. Once diluted, the solutions were vortexed and examined for the formation of precipitates. […] For Compound 26, a 100 mM solution of the compound dissolved in DMSO was diluted in phosphate buffered saline (Life Technologies) to make a 20 mg/ml solution. The stock of […] was chosen because this is the upper end of what would be required to dose mice for a range of studies including MTD, PK, PD and efficacy. The pH of this solution was determined to be 2, as previously described. […] At high concentrations some RSK inhibitors were highly soluble while others were not. Compound 0 is (R)—N-(1-benzyl-1H-pyrazol-4-yl)-9-methyl-6-oxo-6,7,8,9-tetrahydropyrido[3′,2′:4,5]pyrrolo[1,2-a]pyrazine-2-carboxamide. Compound 0 was not soluble, whereas Compounds 18, 20, 21, 25 and 26 were soluble under the same conditions (Table 5).

[18] = test system: phosphorylated Y-box binding protein-1 (YB-1) at serine 102 (P-YB-1S102); assay: Immunoblotting of cell signalling, loss of P-YB-1 in MDA-MB-231 cells; details: Homo sapiens, MDA-MB-231, read-out: IC50 values for P-YB-1
Protocol: Following desired experimental conditions, breast cancer cell lines grown and treated in 6 well plates or 100 mm culture dishes (Grenier Bio-One) were placed on ice and the supernatant from each well was removed and the cells were washed in cold PBS. Following removal of PBS, cells were exposed to radioimmunoprecipitation assay (RIPA) buffer (50 mM Tris-HCl (pH 8), 150 mM NaCl, 1% NP-40, 0.5% sodium deoxycholate, 0.1% SDS; Fisher Scientific) supplemented with 1% phosphatase inhibitor (Fisher Scientific) and 1% protease inhibitor (Fisher Scientific) for 10 minutes. Samples were transferred to eppendorf tubes, vortexed and then centrifuged at 14 000 rpm for 10 minutes. Supernatants were collected as whole cell lysates.
To begin, the protein content of the lysates was measured using the Bicinchoninic Acid (BCA) Protein Assay Kit (Pierce), which included a protein standard curve generated with bovine serum albumin. Appropriate volumes of samples and loading buffer (50 mM Tris-HCl (pH 6.8), 2% SDS, 10% glycerol, 1% j-mercaptoethanol, 12.5 mM EDTA, 0.02% bromophenol blue) were mixed, ensuring that equal amounts of protein were loaded. For the majority of experiments in this study, 30 μg of protein per well was loaded. Samples were then resolved on SDS-PAGE (polyacrylamide gel electrophoresis) using various percentages of acrylamide gels (8%-12%), depending on the proteins of interest. SDS-PAGE was run in SDS running buffer (25 mM Tris, 192 mM glycine, 0.1% SDS) and then transferred to nitrocellulose membranes (Bio-Rad) in transfer buffer (48 mM Tris, 39 mM glycine, 20% (v/v) methanol) at 100 volts for 90 minutes at room temperature. Immunoblots were then blocked in 5% skim milk in tris-buffered saline with 0.1% Tween-20 (TBS-T; 50 mM Tris-HCl, pH 7.5, 150 mM NaCl, 0.1% (v/v) Tween-20 (Fisher Scientific)) for 1 to 2 hours. Immunoblots were then incubated with selected primary antibodies diluted in TBS-T with 0.1% gelatin (Bio-Rad) and 0.05% sodium azide (Alfa Aesar) overnight. Following washes with TBT-T 4 times for 8 to 10 minutes, immunoblots were incubated with appropriate secondary antibodies conjugated to horseradish peroxidise (Cell Signalling Technology) diluted in TBS-T plus 5% skim milk at a ratio of 1:5000 for 2 hours at room temperature. After an additional round of washes in TBS-T, immunoblots were exposed to combined enhanced chemiluminescence (ECL) reagents (Fisher Scientific) for 1 minute and developed using ChemiDoc MP Imaging System (Bio-Rad). For certain immunoblots, bands of proteins of interest were scanned and band intensity ratios were determined by densitometric analysis (ImageJ). […] Total YB-1 was used as a loading control (1:5000 Abcam). […] To assess whether cells are actively undergoing cell death, the activity of poly ADP ribose polymerase (PARP) (1:1000 CST) was also measured using the immunoblotting method.

MDA-MB-231 cells [19] = assay: Monolayer growth inhibition, crystal violet assay; format: cell-based; details: Homo sapiens; MDA-MB-231 (TNBC), 5 days, single dose on day 1
Description: as §1

SUM149-PTXR cells [20] = assay: Monolayer growth inhibition, crystal violet assay; format: cell-based; details: Homo sapiens; SUM149-PTXR (TNBC, BRCA Mutant), 5 days, single dose on day 1
Description: as §1

PC3 cells [21] = assay: Monolayer growth inhibition, crystal violet assay; format: cell-based; details: Homo sapiens, PC-3; PC3 (Prostate), 5 days, single dose on day 1
Description: as §1

MDA-MB-435 cells [22] = assay: Monolayer growth inhibition, crystal violet assay; format: cell-based; details: Homo sapiens; MDA-MB-435 (Melanoma), 5 days, single dose on day 1
Description: as §1

4T1 cells [23] = assay: Monolayer growth inhibition, crystal violet assay; format: cell-based; details: Mus musculus; 4T1 (TNBC), 5 days, single dose on day 1
Description: as §1

HCC1143 cells [24] = assay: Monolayer growth inhibition, crystal violet assay; format: cell-based; details: Homo sapiens; HCC1143 (TNBC), 5 days, single dose on day 1
Description: as §1

SUM149 cells [25] = assay: Monolayer growth inhibition, crystal violet assay; format: cell-based; details: Homo sapiens; SUM149 (TNBC, BRCA Mutant), 5 days, single dose on day 1
Description: as §1

SUM149-PTXR cells [26] = assay: Monolayer growth inhibition, Alamar blue assay; format: cell-based, Human; details: Homo sapiens; SUM149-PTXR (TNBC, BRCA Mutant), 5 days, single dose on day 1
Description: as §1

T47D cells [27] = assay: Monolayer growth inhibition, Alamar blue assay; format: cell-based, Human; details: Homo sapiens; T47D (ER/PR), 5 days, single dose on day 1
Description: as §1

4T1 cells [28] = assay: Soft agar growth inhibition assay; format: cell-based; details: Mus musculus; 4T1 (TNBC), 14-22 days; read-out: IC50 Values - Soft Agar (14-22 Days)
Protocol: Two agar (Alfa Aesar) solutions (0.8% w/v and 0.4% w/v) were prepared in ultrapure water. The 0.8% agar solution was mixed in equal volumes with 2× media previously prepared from powder (Life Technologies) following the manufacturer's instructions and filter sterilized. The 0.8% agar and media solution was added to 24 well plates (Mandel Scientific) at 500 μl per well. The plates were placed in a humidified incubator at 37° C. with 5% CO2. Next, the 0.4% agar solution was mixed in equal volumes with 2× media. Breast cancer cell lines were added to this solution to achieve a final concentration of 2×10^4 cells per well and […] was added to each well on top of the bottom agar and media layer. […] The plates were returned to the incubator for 10-32 days, with a re-dosing of compounds or DMSO every 7 days. After 10-32 days, colonies were counted in 3 different fields of view for each well.
Representative compounds described herein were tested in the soft agar growth inhibition assay against the 4T1 breast cancer cell line.

MDA-MB-231 cells [29] = assay: Soft agar growth inhibition assay; format: cell-based; details: Homo sapiens; MDA-MB-231 (TNBC), 14-22 days; read-out: IC50 Values - Soft Agar (14-22 Days)

With C[C@@H]1CNC(=O)c2cc3ccc(C(=O)Nc4cnn(Cc5ccc(C(F)(F)F)cc5)c4)nc3n21 [Compound 22, (R)-9-methyl-6-oxo-N-(1-(4-(trifluoromethyl)benzyl)-1H-pyrazol-4-yl)-6,7,8,9-tetrahydropyrido[3′,2′:4,5]pyrrolo[1,2-a]pyrazine-2-carboxamide] the IC50 (JIMT-1 cells [1]) was 17.1 ± 2.4 µM, the IC50 (MDA-MB-231 cells [2]) was 13.9 ± 3.5 µM and the IC50 (PC3 cells [3]) was 9.2 ± 1.5 µM. The IC50 (HCC1937 cells [4]) was 12.6 ± 3.5 µM, the IC50 (MDA-MB-435 cells [5]) was 6.8 ± 6.4 µM and the IC50 (4T1 cells [6]) was 4.5 ± 1 µM. The IC50 (HCC1143 cells [7]) was 9.9 ± 1 µM, the IC50 (SUM149 cells [8]) was 7.7 ± 4.6 µM and the IC50 (MDA-MB-468 cells [9]) was 7.5 ± 2.1 µM. It also gave an IC50 (MDA-MB-468 cells [10]) of 6.9 ± 1.7 µM, an IC50 (JIMT-1 cells [11]) of 14.2 ± 5.1 µM and an IC50 (T47D cells [12]) of 4.3 ± 2.1 µM. It also gave an IC50 (HCC1937 cells [13]) of 9.9 ± 3 µM, an IC50 (MDA-MB-468 cells [14]) of 6.6 ± 2.3 µM and an IC50 (All cell lines [15]) of 4.5 to 17.1 µM. For the same compound, the IC50 (All cell lines [16]) was 2.6 to 14.2 µM, the “Solubility, 20 mg/ml Solution” value [17] was “Precipitate” and the IC50 [18] was 0.024 µM. For the same compound, the IC50 (MDA-MB-231 cells [19]) was 6.6 ± 2.1 µM, the IC50 (SUM149-PTXR cells [20]) was 8 ± 1.3 µM and the IC50 (PC3 cells [21]) was 6.8 ± 1.8 µM. The IC50 (MDA-MB-435 cells [22]) was 3.2 ± 1.3 µM, the IC50 (4T1 cells [23]) was 2.6 ± 1.5 µM and the IC50 (HCC1143 cells [24]) was 6.6 ± 3.1 µM. The IC50 (SUM149 cells [25]) was 6.2 ± 4.8 µM, the IC50 (SUM149-PTXR cells [26]) was 7.8 ± 4.6 µM and the IC50 (T47D cells [27]) was 4.8 ± 0.9 µM. The IC50 (4T1 cells [28]) was 3.8 ± 1.9 µM and the IC50 (MDA-MB-231 cells [29]) was 0.2 ± 0.1 µM.
In the case of C[C@@H]1CNC(=O)c2cc3ccc(C(=O)Nc4cnn(Cc5ccc(F)cc5F)c4)nc3n21 [Compound 23, (R)—N-(1-(2,4-difluorobenzyl)-1H-pyrazol-4-yl)-9-methyl-6-oxo-6,7,8,9-tetrahydropyrido[3′,2′:4,5]pyrrolo[1,2-a]pyrazine-2-carboxamide], the IC50 (JIMT-1 cells [1]) is reported as 19.8 ± 7.1 µM, the IC50 (MDA-MB-231 cells [2]) is reported as 7.8 ± 2 µM and the IC50 (PC3 cells [3]) is reported as 10.7 ± 1.1 µM. It also gave an IC50 (HCC1937 cells [4]) of 10.5 ± 1 µM, an IC50 (MDA-MB-435 cells [5]) of 1.1 ± 0.7 µM and an IC50 (4T1 cells [6]) of 2.5 ± 0.8 µM. The IC50 (HCC1143 cells [7]) was 9.7 ± 1.3 µM, the IC50 (SUM149 cells [8]) was 3 ± 2.4 µM and the IC50 (MDA-MB-468 cells [9]) was 9.7 ± 1.8 µM. It also gave an IC50 (MDA-MB-468 cells [10]) of 4 ± 0.8 µM, an IC50 (JIMT-1 cells [11]) of 15 ± 6.1 µM and an IC50 (T47D cells [12]) of 4.7 ± 4.9 µM. For the same compound, the IC50 (HCC1937 cells [13]) was 8.6 ± 3 µM, the IC50 (MDA-MB-468 cells [14]) was 7.2 ± 1.5 µM and the IC50 (All cell lines [15]) was 1.1 to 19.8 µM. The IC50 (All cell lines [16]) was 1.1 to 15 µM, the “Solubility, 20 mg/ml Solution” value [17] was “Precipitate” and the IC50 [18] was 0.033 µM. It also gave an IC50 (MDA-MB-231 cells [19]) of 3.6 ± 0.8 µM, an IC50 (SUM149-PTXR cells [20]) of 5 ± 2.4 µM and an IC50 (PC3 cells [21]) of 6.8 ± 1.8 µM. It also gave an IC50 (MDA-MB-435 cells [22]) of 1.1 ± 0.8 µM, an IC50 (4T1 cells [23]) of 1.8 ± 0.8 µM and an IC50 (HCC1143 cells [24]) of 7.3 ± 3.4 µM. It also gave an IC50 (SUM149 cells [25]) of 2.1 ± 1.6 µM, an IC50 (SUM149-PTXR cells [26]) of 5.1 ± 4 µM and an IC50 (T47D cells [27]) of 6 ± 4.9 µM. For the same compound, the IC50 (4T1 cells [28]) was 2.4 ± 0.6 µM and the IC50 (MDA-MB-231 cells [29]) was 0.3 ± 0.2 µM.
